Assay results from patent publication US10307357B2, “Prebiotic oral care compositions containing an alkyl glycoside” (COLGATE-PALMOLIVE COMPANY, priority 2013, dated 2019).

Tests used:
Assay in all cases: Phenotype microarray metabolic activity
Format in all cases: cell-based
Settings in all cases: control = 1
Actinomyces viscosus = tested on: Actinomyces viscosus
Method: (§1) The extent of metabolic activity of the tested bacteria in the presence of the above-mentioned glycosides after 24 hours and 48 hours was investigated through a high throughput phenotype microarray system (PM) for microbial cells (Biolog Inc.). Each PM can contain up to 95 different biochemical compounds (e.g. glycosides) that may act as substrates for bacteria as well as one negative control, not containing the substrates. Microarray plates were used in which the different wells of each plate were pre-loaded (by the manufacturer, Biolog Inc.) with different glycosides to be tested. Each bacterial species was tested using a separate microarray plate. Thus, a single bacterial species was tested with a variety of glycosides on each particular plate. The microarrays are based on redox technology, using cell respiration as a universal reporter. Active cell respiration results in the reduction of a tetrazolium dye and in the formation of a strong color—for example, when using the tetrazolium dye “Biolog Redox Dye Mix D”, the color changes from transparent/colorless to purple when the dye is reduced. The observation of this color change indicates which of the substrates improve the metabolic activity and health of the cells. Each bacterial species was collected from blood agar plates (incubated for 48 hours anaerobically at 37° C.) and transferred to an IF-0 Base inoculation fluid (Biolog Inc.), which is a nutritionally poor medium. The resulting cell suspension was adjusted to a transmittance of 42% (relative to the transmittance of the base inoculation fluid with no bacterial species present) at 492 nm using a BioRad SmartSpec 3000 Photometer (the adjustment being effected by adding either further inoculation fluid or further bacteria until the transmittance of 42% was achieved). A 1:5 dilution of this suspension was prepared by mixing 3 mL of the 42% transmittance cell suspension with […] of an inoculation fluid (which inoculation fluid was formed by mixing 11.6 mL sterile water, 62.5 mL IF-0 base inoculation fluid and 0.9 mL of the tetrazolium dye “Biolog Redox Dye mix D”), resulting in a final cell density which was equal to 85% transmittance using a BioRad SmartSpec 3000 Photometer. For each of the glycosides tested, the microarray plate (obtained from the supplier (Biolog Inc.) with glycosides already present in the relevant wells in powder form) was directly inoculated with 100 μL/well of this 85% transmittance cell suspension. All plates were incubated in an anaerobic atmosphere at 37° C. Color changes were measured spectrophotometrically at 492 nm (Thermo Scientific Multiskan Ascent) at 24 hrs and 48 hrs using the same plate at both time points. […] After 24 hrs and 48 hrs under continuous shaking in a Multiscan microplate reader, the optical density (OD) of the synthetic medium at 24 hours and 48 hours was measured (using the microplate reader) at a wavelength of 492 nm for each combination of bacterium/glycoside, and for each of their respective controls (i.e. which contained the particular bacterium but no glycosides). […] The experiment was carried out three times for each combination of bacterium with glycosides, with each repeat being carried out on a different day (thus providing three biological replicas). The controls were also carried out three times, as above. The values shown are the average (mean) of the three single values obtained (as detailed above) for each combination of bacterium with glycosides, at 24 hrs and at 48 hrs.

[1] = tested on: Aggregatibacter actinomycetemcomitans
Method: as §1

Capnocytophaga sputigena = tested on: Capnocytophaga sputigena
Method: as §1

Fusobacterium nucleatum = tested on: Fusobacterium nucleatum
Method: as §1

Porphyromonas gingivalis = tested on: Porphyromonas gingivalis
Method: as §1

Streptococcus gordonii = tested on: Streptococcus gordonii
Method: as §1

Streptococcus mitis = tested on: Streptococcus mitis
Method: as §1

Streptococcus mutans = tested on: Streptococcus mutans
Method: as §1

Streptococcus salivarius = tested on: Streptococcus salivarius
Method: as §1

Streptococcus sanguinis = tested on: Streptococcus sanguinis
Method: as §1

Streptococcus sobrinus = tested on: Streptococcus sobrinus
Method: as §1

Tannerella forsythia = tested on: Tannerella forsythia
Method: as §1

Veillonella parvula = tested on: Veillonella parvula
Method: as §1

SMILES	OD 492 nm divided by control (metabolic activity) (Actinomyces viscosus; 24 hrs)	OD 492 nm divided by control (metabolic activity) (Actinomyces viscosus; 48 hrs)	OD 492 nm divided by control (metabolic activity) ([1]; 24 hrs)	OD 492 nm divided by control (metabolic activity) ([1]; 48 hrs)	OD 492 nm divided by control (metabolic activity) (Capnocytophaga sputigena; 24 hrs)	OD 492 nm divided by control (metabolic activity) (Capnocytophaga sputigena; 48 hrs)	OD 492 nm divided by control (metabolic activity) (Fusobacterium nucleatum; 24 hrs)	OD 492 nm divided by control (metabolic activity) (Fusobacterium nucleatum; 48 hrs)	OD 492 nm divided by control (metabolic activity) (Porphyromonas gingivalis; 24 hrs)	OD 492 nm divided by control (metabolic activity) (Porphyromonas gingivalis; 48 hrs)	OD 492 nm divided by control (metabolic activity) (Streptococcus gordonii; 24 hrs)	OD 492 nm divided by control (metabolic activity) (Streptococcus gordonii; 48 hrs)	OD 492 nm divided by control (metabolic activity) (Streptococcus mitis; 24 hrs)	OD 492 nm divided by control (metabolic activity) (Streptococcus mitis; 48 hrs)	OD 492 nm divided by control (metabolic activity) (Streptococcus mutans; 24 hrs)	OD 492 nm divided by control (metabolic activity) (Streptococcus mutans; 48 hrs)	OD 492 nm divided by control (metabolic activity) (Streptococcus salivarius; 24 hrs)	OD 492 nm divided by control (metabolic activity) (Streptococcus salivarius; 48 hrs)	OD 492 nm divided by control (metabolic activity) (Streptococcus sanguinis; 24 hrs)	OD 492 nm divided by control (metabolic activity) (Streptococcus sanguinis; 48 hrs)	further results
CO[C@H]1O[C@H](CO)[C@H](O)[C@H](O)[C@H]1O [α-methyl-D-galactoside]	2.4728	3.3823	0.8204	0.7697	0.5747	0.8435	0.8949	0.8204	0.8079	0.8180	0.8960	0.8401	1.3498	1.3555	1.0573	0.9904	0.9677	0.8829	1.0198	1.1007	OD 492 nm divided by control (metabolic activity) (Streptococcus sobrinus; 24 hrs): 1.0761; OD 492 nm divided by control (metabolic activity) (Streptococcus sobrinus; 48 hrs): 0.9730; OD 492 nm divided by control (metabolic activity) (Tannerella forsythia; 24 hrs): 1.0380; OD 492 nm divided by control (metabolic activity) (Tannerella forsythia; 48 hrs): 1.1302; OD 492 nm divided by control (metabolic activity) (Veillonella parvula; 24 hrs): 0.9782; OD 492 nm divided by control (metabolic activity) (Veillonella parvula; 48 hrs): 1.2054
CO[C@@H]1O[C@H](CO)[C@H](O)[C@H](O)[C@H]1O [β-methyl-D-galactoside]	2.8391	3.9827	0.8310	0.7733	1.0421	1.0860	0.9051	0.7899	1.1297	1.8212	1.4834	1.8026	1.0977	0.9864	1.1594	1.0780	6.9837	6.4661	1.0434	1.0609	OD 492 nm divided by control (metabolic activity) (Streptococcus sobrinus; 24 hrs): 1.3078; OD 492 nm divided by control (metabolic activity) (Streptococcus sobrinus; 48 hrs): 1.3002; OD 492 nm divided by control (metabolic activity) (Tannerella forsythia; 24 hrs): 1.2183; OD 492 nm divided by control (metabolic activity) (Tannerella forsythia; 48 hrs): 1.8850; OD 492 nm divided by control (metabolic activity) (Veillonella parvula; 24 hrs): 0.8103; OD 492 nm divided by control (metabolic activity) (Veillonella parvula; 48 hrs): 0.6840
